According to PubChem BioAssay AID330 (DTP/NCI, 2004):
Values joined by “and” are separate entries in the source; they are usually repeats but may differ in a detail not shown here. Equal values may be shown once. Inconclusive results and toxic doses are left out. Square brackets hold non-standard residues; d marks the D form. Peptide text beside a SMILES is read from it. ξ: configuration not given here. Ac5c = NC1(C(=O)O)CCCC1; ξP = O=C(O)C1CCCN1

Test system: P388 leukemia ip, CD2F1 mice, survival T/C
Experiment: NCI In Vivo Anticancer Drug Screen. Data for tumor model P388 Leukemia (intraperitoneal) in CD2F1 (CDF1) mice
Details: endpoint: median survival time, higher = longer survival
Outline: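 Mice carrying the transplanted tumor received test compound or vehicle. Survival was recorded in each group, and the value is the treated-group measurement divided by that of the vehicle-treated control group.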

[1] = dose: 25.0 mg/kg/injection, schedule: Q04DX002 (ip), vehicle: saline with Tween-80
[2] = dose: 50.0 mg/kg/injection, schedule: Q04DX002 (ip), vehicle: saline with Tween-80
[3] = dose: 50.0 mg/kg/injection, schedule: Q01DX009 (ip), vehicle: saline
[4] = dose: 100.0 mg/kg/injection, schedule: Q01DX009 (ip), vehicle: saline
[5] = dose: 25.0 mg/kg/injection, schedule: Q01DX005 (ip), vehicle: saline with Tween-80
[6] = dose: 50.0 mg/kg/injection, schedule: Q01DX005 (ip), vehicle: saline with Tween-80
[7] = dose: 100.0 mg/kg/injection, schedule: Q01DX005 (ip), vehicle: saline with Tween-80
[8] = dose: 200.0 mg/kg/injection, schedule: Q01DX005 (ip), vehicle: saline with Tween-80
[9] = dose: 50.0 mg/kg/injection, schedule: Q01DX005 (ip), vehicle: saline
[10] = dose: 100.0 mg/kg/injection, schedule: Q01DX005 (ip), vehicle: saline
[11] = dose: 200.0 mg/kg/injection, schedule: Q01DX005 (ip), vehicle: saline
[12] = dose: 100.0 mg/kg/injection, schedule: Q01DX009 (ip), vehicle: saline with Tween-80
[13] = dose: 50.0 mg/kg/injection, schedule: Q01DX005 (ip), vehicle: Klucel (hydroxypropylcellulose) (HPC)
[14] = dose: 100.0 mg/kg/injection, schedule: Q01DX005 (ip), vehicle: Klucel (hydroxypropylcellulose) (HPC)
[15] = dose: 200.0 mg/kg/injection, schedule: Q01DX005 (ip), vehicle: Klucel (hydroxypropylcellulose) (HPC)
[16] = dose: 25.0 mg/kg/injection, schedule: Q01DX009 (ip), vehicle: saline with Tween-80
[17] = dose: 50.0 mg/kg/injection, schedule: Q01DX009 (ip), vehicle: saline with Tween-80
[18] = dose: 60.0 mg/kg/injection, schedule: Q01DX005 (ip), vehicle: saline with Tween-80
[19] = dose: 120.0 mg/kg/injection, schedule: Q01DX005 (ip), vehicle: saline with Tween-80
[20] = dose: 200.0 mg/kg/injection, schedule: Q01DX009 (ip), vehicle: saline with Tween-80
[21] = dose: 240.0 mg/kg/injection, schedule: Q01DX005 (ip), vehicle: saline with Tween-80
[22] = dose: 100.0 mg/kg/injection, schedule: Q01DX001 (ip), vehicle: saline with Tween-80
[23] = dose: 200.0 mg/kg/injection, schedule: Q01DX001 (ip), vehicle: saline with Tween-80
[24] = dose: 400.0 mg/kg/injection, schedule: Q01DX001 (ip), vehicle: saline with Tween-80

`CNC(=O)OCc1c2ccncc2c(C)c2c1[nH]c1ccccc12` was tested, and the T/C (dose: 6.25 mg/kg/injection, schedule: Q04DX002 (ip), vehicle: saline with Tween-80) was 163 % of control, the T/C (dose: 12.5 mg/kg/injection, schedule: Q04DX002 (ip), vehicle: saline with Tween-80) was 150 % of control and the T/C [1] was 153 % of control and 167 % of control. For the same compound, the T/C [2] was 109 % of control.

`O=C(Nc1ccc2c(O)c(N=Nc3ccc(N=Nc4ccc(S(=O)(=O)O)cc4)cc3)c(S(=O)(=O)O)cc2c1)c1ccccc1` was tested, and the T/C [3] was 100 % of control, the T/C [4] was 95 % of control and the T/C (dose: 200.0 mg/kg/injection, schedule: Q01DX009 (ip), vehicle: saline) was 103 % of control.

For `CNC(=O)OCc1c(COC(=O)NC)c(-c2ccc(Cl)cc2Cl)n2c1CCC2`, the T/C (dose: 100.0 mg/kg/injection, schedule: Q01DX009 (ip), vehicle: distilled water + Tween-80) was 164 % of control.

In the case of `COc1ccc(NC(=O)Nc2ccc(-c3ccc(NC(=O)Nc4ccc(OC)cc4)c(C)c3)cc2C)cc1`, the T/C [5] is reported as 100 % of control, the T/C [6] is reported as 87 % of control and 94 % of control and the T/C [7] is reported as 91 % of control. The T/C [8] was 90 % of control.

`O=S(O)O` was tested, and the T/C [9] was 108 % of control, the T/C [10] was 101 % of control and the T/C [11] was 109 % of control. The T/C (dose: 400.0 mg/kg/injection, schedule: Q01DX005 (ip), vehicle: saline) was 116 % of control.

In the case of `Nc1ccc(F)cc1S`, the T/C [12] is reported as 118 % of control.

In the case of `COc1cc2c(cc1OC)C1C(CC(=O)O)CCCN1CC2` (stereo unspecified), the T/C [13] is reported as 112 % of control, the T/C [14] is reported as 100 % of control and the T/C [15] is reported as 100 % of control.

`Cc1ccc(Nc2nc(N)nc3nc(N)c(C(N)=O)nc23)cc1` was tested, and the T/C [16] was 100 % of control, the T/C [17] was 100 % of control and the T/C [12] was 91 % of control.

In the case of `O=[N+]([O-])c1ccc(SCc2ccccc2)c2nonc12`, the T/C (dose: 12.5 mg/kg/injection, schedule: Q01DX009 (ip), vehicle: suspension in saline) is reported as 111 % of control, the T/C (dose: 25.0 mg/kg/injection, schedule: Q01DX009 (ip), vehicle: saline) is reported as 94 % of control and the T/C (dose: 25.0 mg/kg/injection, schedule: Q01DX009 (ip), vehicle: suspension in saline) is reported as 106 % of control. For the same compound, the T/C [3] was 100 % of control, the T/C (dose: 50.0 mg/kg/injection, schedule: Q01DX009 (ip), vehicle: suspension in saline) was 113 % of control and the T/C [4] was 94 % of control.

`CCOc1ccc2c(N/N=C/c3ccc(N(CCCl)CCCl)cc3)cc(C)nc2c1` was tested, and the T/C (dose: 12.5 mg/kg/injection, schedule: Q01DX009 (ip), vehicle: saline with Tween-80) was 96 % of control, the T/C [16] was 94 % of control and the T/C [17] was 99 % of control and 88 % of control.

`O=C(O)c1nc2ccccc2c2ncccc12` was tested, and the T/C [1] was 101 % of control, the T/C [2] was 92 % of control and the T/C (dose: 100.0 mg/kg/injection, schedule: Q04DX002 (ip), vehicle: saline with Tween-80) was 94 % of control.

In the case of `BrC1C2CCC3OC3C12` (stereo unspecified), the T/C [18] is reported as 104 % of control and the T/C [19] is reported as 103 % of control.

With `O=C1NCCCCC1(Cl)Cl` the T/C (dose: 12.5 mg/kg/injection, schedule: Q01DX005 (ip), vehicle: saline with Tween-80) was 99 % of control, the T/C [5] was 101 % of control and the T/C [6] was 99 % of control and 103 % of control.

In the case of `O=C1C(=O)C2CC3(CC1N2Cc1ccccc1)OCCO3`, the T/C (dose: 8.75 mg/kg/injection, schedule: Q01DX005 (ip), vehicle: Klucel (hydroxypropylcellulose) (HPC)) is reported as 109 % of control, the T/C (dose: 17.5 mg/kg/injection, schedule: Q01DX005 (ip), vehicle: Klucel (hydroxypropylcellulose) (HPC)) is reported as 104 % of control and the T/C (dose: 35.0 mg/kg/injection, schedule: Q01DX005 (ip), vehicle: Klucel (hydroxypropylcellulose) (HPC)) is reported as 110 % of control.

With `NC(=O)c1cc([N+](=O)[O-])cc([N+](=O)[O-])c1` the T/C (dose: 25.0 mg/kg/injection, schedule: Q01DX009 (ip), vehicle: Klucel (hydroxypropylcellulose) (HPC)) was 103 % of control, the T/C (dose: 50.0 mg/kg/injection, schedule: Q01DX009 (ip), vehicle: Klucel (hydroxypropylcellulose) (HPC)) was 88 % of control and the T/C (dose: 100.0 mg/kg/injection, schedule: Q01DX009 (ip), vehicle: Klucel (hydroxypropylcellulose) (HPC)) was 91 % of control.

For `CCOC(=O)c1ccc(NC(=O)Nc2nccs2)cc1`, the T/C [20] was 162 % of control and the T/C (dose: 400.0 mg/kg/injection, schedule: Q01DX009 (ip), vehicle: saline with Tween-80) was 92 % of control.

`c1cnc2c3ccncc3c3nc(-c4ccncc4)[nH]c3c2c1` was tested, and the T/C [13] was 91 % of control, the T/C [14] was 88 % of control and the T/C [15] was 101 % of control.

For `O=C(O)C1CC2c3ccccc3C1([N+](=O)[O-])c1ccccc12` (stereo unspecified), the T/C [18] was 101 % of control, the T/C [19] was 104 % of control and the T/C [21] was 109 % of control.

In the case of `COC(=O)c1nn(-c2ccc(Cl)cc2)c2nc3ccccc3c-2c1C(=O)OC`, the T/C [22] is reported as 96 % of control, the T/C [23] is reported as 115 % of control and the T/C [24] is reported as 96 % of control.

`COc1cc2c(c3c1c(=S)c1ccccc1n3C)C=CC(C)(C)O2` was tested, and the T/C [13] was 98 % of control, the T/C [14] was 98 % of control and the T/C [15] was 108 % of control.

`COCc1cccc2ccnc(C)c12` was tested, and the T/C [22] was 104 % of control, the T/C [23] was 108 % of control and the T/C [24] was 107 % of control.

`CCOC(=O)N1c2ccccc2N(C(=O)OCC)C1C#N` was tested, and the T/C [18] was 97 % of control, the T/C [19] was 96 % of control and the T/C [21] was 87 % of control.

`CN=C(N)NN=C1c2ccccc2-c2ccccc21` was tested, and the T/C [1] was 97 % of control and the T/C [2] was 101 % of control.

In the case of `CCCCC(CC)COC(C)=O` (stereo unspecified), the T/C (dose: 100.0 mg/kg/injection, schedule: Q04DX003 (ip), vehicle: saline with Tween-80) is reported as 104 % of control, the T/C (dose: 200.0 mg/kg/injection, schedule: Q04DX003 (ip), vehicle: saline with Tween-80) is reported as 109 % of control and the T/C (dose: 400.0 mg/kg/injection, schedule: Q04DX003 (ip), vehicle: saline with Tween-80) is reported as 86 % of control.

In the case of `O=c1[nH][nH]c(=O)c2c1Nc1c(c(=O)[nH][nH]c1=O)C2c1ccncc1`, the T/C [6] is reported as 103 % of control, the T/C [7] is reported as 108 % of control and the T/C [8] is reported as 96 % of control.

`CC1=C(C(=O)Nc2ccc(C)cc2C)C(c2cccc([N+](=O)[O-])c2)C(C(=O)Nc2ccc(C)cc2C)=C(C)N1` was tested, and the T/C (dose: 7.5 mg/kg/injection, schedule: Q01DX005 (ip), vehicle: Klucel (hydroxypropylcellulose) (HPC)) was 100 % of control, the T/C (dose: 15.0 mg/kg/injection, schedule: Q01DX005 (ip), vehicle: Klucel (hydroxypropylcellulose) (HPC)) was 94 % of control and the T/C (dose: 30.0 mg/kg/injection, schedule: Q01DX005 (ip), vehicle: Klucel (hydroxypropylcellulose) (HPC)) was 98 % of control.

For `NC1(C(=O)N2CCCC2C(=O)O)CCCC1` (stereo unspecified) (H-[Ac5c]-[ξP]-OH), the T/C [9] was 96 % of control, the T/C [10] was 89 % of control and the T/C [11] was 108 % of control.

`CC(C)C1=CC23CCC4C(C)(C(=O)O)CCCC4(C)C2CC1C(C(=O)O)C3C(=O)O` (stereo unspecified) was tested, and the T/C [9] was 97 % of control, the T/C [10] was 96 % of control and the T/C [11] was 98 % of control.

`Nc1nc(N)c2c(n1)CCCC2` was tested, and the T/C (dose: 6.25 mg/kg/injection, schedule: Q04DX003 (ip), vehicle: saline with Tween-80) was 105 % of control, the T/C (dose: 12.5 mg/kg/injection, schedule: Q04DX003 (ip), vehicle: saline with Tween-80) was 100 % of control and the T/C (dose: 25.0 mg/kg/injection, schedule: Q04DX003 (ip), vehicle: saline with Tween-80) was 100 % of control.

`CC(C)C(C(=O)O)N(C)C(=O)c1cnc2ccccc2n1` (stereo unspecified) was tested, and the T/C [18] was 104 % of control, the T/C [19] was 97 % of control and the T/C [21] was 99 % of control.

`CCC1CC(C)C(O)/C=C/C=C/CC(C)OC(=O)CC(O)C(OC)C1OC1CC(C)(O)C(O)C(C)O1` (stereo unspecified) was tested, and the T/C (dose: 10.5 mg/kg/injection, schedule: Q01DX005 (ip), vehicle: Klucel (hydroxypropylcellulose) (HPC)) was 112 % of control, the T/C (dose: 21.0 mg/kg/injection, schedule: Q01DX005 (ip), vehicle: Klucel (hydroxypropylcellulose) (HPC)) was 102 % of control and the T/C (dose: 42.0 mg/kg/injection, schedule: Q01DX005 (ip), vehicle: Klucel (hydroxypropylcellulose) (HPC)) was 105 % of control. For the same compound, the T/C (dose: 84.0 mg/kg/injection, schedule: Q01DX005 (ip), vehicle: Klucel (hydroxypropylcellulose) (HPC)) was 102 % of control.

`CN(C)c1nc(N(C)C)n2c(-c3ccccc3[N+](=O)[O-])nnc2n1` was tested, and the T/C [17] was 99 % of control, the T/C [12] was 102 % of control and the T/C [20] was 99 % of control.
